Columns and labels:
[1] = test system: ORYSA: rice (Oryza sativa); test: Post-Emergent Test II herbicidal activity; type: in vivo; details: post-emergence, 336 h, 14 days, read-out: Visual Growth Reduction (%) 14 Days After Application ORYSA; for pest or weed control at 35 g/ha: 35 g ai/ha; for pest or weed control at 70 g/ha: 70 g ai/ha; for pest or weed control at 140 g/ha: 140 g ai/ha
Summary of the method: (§1)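 Foliar application at 187 L/ha to greenhouse-grown seedlings (first/second true leaf), highest rate plus four serial halvings. Scoring: visual, 14 d after treatment, 0% no injury to 100% complete kill.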

[2] = test system: ABUTH: velvetleaf (Abutilon theophrasti); test: Post-Emergent Test II herbicidal activity; type: in vivo; details: post-emergence, 336 h, 14 days, read-out: Visual Growth Reduction (%) 14 Days After Application ABUTH; for pest or weed control at 35 g/ha: 35 g ai/ha; for pest or weed control at 70 g/ha: 70 g ai/ha; for pest or weed control at 140 g/ha: 140 g ai/ha
Summary of the method: as §1

[3] = test system: ECHCG: barnyardgrass (Echinochloa crus-galli); test: Post-Emergent Test II herbicidal activity; type: in vivo; details: post-emergence, 336 h, 14 days, read-out: Visual Growth Reduction (%) 14 Days After Application ECHCG; for pest or weed control at 35 g/ha: 35 g ai/ha; for pest or weed control at 70 g/ha: 70 g ai/ha; for pest or weed control at 140 g/ha: 140 g ai/ha
Summary of the method: as §1

[4] = test system: EPHHL: wild poinsettia (Euphorbia heterophylla); test: Post-Emergent Test II herbicidal activity; type: in vivo; details: post-emergence, 336 h, 14 days, read-out: Visual Growth Reduction (%) 14 Days After Application EPHHL; for pest or weed control at 35 g/ha: 35 g ai/ha; for pest or weed control at 70 g/ha: 70 g ai/ha; for pest or weed control at 140 g/ha: 140 g ai/ha
Summary of the method: as §1

[5] = test system: ZEAMX: maize, corn (Zea mays); test: Post-Emergent Test II herbicidal activity; type: in vivo; details: post-emergence, 336 h, 14 days, read-out: Visual Growth Reduction (%) 14 Days After Application ZEAMX
Summary of the method: as §1

[6] = test system: HELAN: sunflower (Helianthus annuus); test: Post-Emergent Test II herbicidal activity; type: in vivo; details: post-emergence, 336 h, 14 days, read-out: Visual Growth Reduction (%) 14 Days After Application HELAN; for pest or weed control at 35 g/ha: 35 g ai/ha; for pest or weed control at 70 g/ha: 70 g ai/ha; for pest or weed control at 140 g/ha: 140 g ai/ha
Summary of the method: as §1

[7] = test system: CYPES: yellow nutsedge (Cyperus esculentus); test: Post-Emergent Test II herbicidal activity; type: in vivo; details: post-emergence, 336 h, 14 days, read-out: Visual Growth Reduction (%) 14 Days After Application CYPES; for pest or weed control at 35 g/ha: 35 g ai/ha; for pest or weed control at 70 g/ha: 70 g ai/ha; for pest or weed control at 140 g/ha: 140 g ai/ha
Summary of the method: as §1

[8] = test system: AMARE: redroot pigweed (Amaranthus retroflexus); test: Post-Emergent Test II herbicidal activity; type: in vivo; details: post-emergence, 336 h, 14 days, read-out: Visual Growth Reduction (%) 14 Days After Application AMARE; for pest or weed control at 35 g/ha: 35 g ai/ha; for pest or weed control at 70 g/ha: 70 g ai/ha; for pest or weed control at 140 g/ha: 140 g ai/ha
Summary of the method: as §1

[9] = test system: BRSNN: oilseed rape, canola (Brassica napus); test: Post-Emergent Test II herbicidal activity; type: in vivo; details: post-emergence, 336 h, 14 days, read-out: Visual Growth Reduction (%) 14 Days After Application BRSNN; for pest or weed control at 35 g/ha: 35 g ai/ha; for pest or weed control at 70 g/ha: 70 g ai/ha; for pest or weed control at 140 g/ha: 140 g ai/ha
Summary of the method: as §1

[10] = test system: CHEAL: lambsquarters (Chenopodium album); test: Post-Emergent Test II herbicidal activity; type: in vivo; details: post-emergence, 336 h, 14 days, read-out: Visual Growth Reduction (%) 14 Days After Application CHEAL; for pest or weed control at 35 g/ha: 35 g ai/ha; for pest or weed control at 70 g/ha: 70 g ai/ha; for pest or weed control at 140 g/ha: 140 g ai/ha
Summary of the method: as §1

[11] = test system: TRZAS: wheat, spring (Triticum aestivum); test: Post-Emergent Test II herbicidal activity; type: in vivo; details: post-emergence, 336 h, 14 days, read-out: Visual Growth Reduction (%) 14 Days After Application TRZAS; for pest or weed control at 35 g/ha: 35 g ai/ha; for pest or weed control at 70 g/ha: 70 g ai/ha; for pest or weed control at 140 g/ha: 140 g ai/ha
Summary of the method: as §1

[12] = test system: SETFA: giant foxtail (Setaria faberi); test: Post-Emergent Test II herbicidal activity; type: in vivo; details: post-emergence, 336 h, 14 days, read-out: Visual Growth Reduction (%) 14 Days After Application SETFA; for pest or weed control at 35 g/ha: 35 g ai/ha; for pest or weed control at 70 g/ha: 70 g ai/ha; for pest or weed control at 140 g/ha: 140 g ai/ha
Summary of the method: as §1

SMILES | pest or weed control at 35 g/ha [1] [%] | pest or weed control at 70 g/ha [1] [%] | pest or weed control at 140 g/ha [1] [%] | pest or weed control at 35 g/ha [2] [%] | pest or weed control at 70 g/ha [2] [%] | pest or weed control at 140 g/ha [2] [%] | pest or weed control at 35 g/ha [3] [%] | pest or weed control at 70 g/ha [3] [%] | pest or weed control at 35 g/ha [4] [%] | pest or weed control at 70 g/ha [4] [%] | pest or weed control at 140 g/ha [4] [%] | pest or weed control at 35 g/ha [6] [%] | pest or weed control at 70 g/ha [6] [%] | pest or weed control at 140 g/ha [6] [%] | pest or weed control at 35 g/ha [7] [%] | pest or weed control at 70 g/ha [7] [%] | pest or weed control at 140 g/ha [7] [%] | pest or weed control at 35 g/ha [8] [%] | pest or weed control at 70 g/ha [8] [%] | pest or weed control at 140 g/ha [8] [%] | further results
COC(=O)c1nc(-c2ccc3nonc3c2)c(F)c(N)c1Cl [Compound 1, Methyl 4-amino-6-(benzo[c][1,2,5]oxadiazol-5-yl)-3-chloro-5-fluoropicolinate] | 0 to 29 | 0 to 29 | 0 to 29 | 85 to 94 | 85 to 94 | 95 to 100 | 75 to 84 | 75 to 84 | 60 to 74 | 60 to 74 | 60 to 74 | 85 to 94 | 95 to 100 | 95 to 100 | 0 to 29 | 0 to 29 | 95 to 100 | 75 to 84 | 75 to 84 | 95 to 100 | pest or weed control at 35 g/ha ([5]; 35 g ai/ha): 60 to 74%; pest or weed control at 70 g/ha ([5]; 70 g ai/ha): 60 to 74%; pest or weed control at 140 g/ha ([5]; 140 g ai/ha): 60 to 74%; pest or weed control at 35 g/ha [9]: 60 to 74%; pest or weed control at 70 g/ha [9]: 60 to 74%; pest or weed control at 140 g/ha [9]: 60 to 74%; pest or weed control at 35 g/ha [10]: 95 to 100%; pest or weed control at 70 g/ha [10]: 95 to 100%; pest or weed control at 140 g/ha [10]: 95 to 100%; pest or weed control at 35 g/ha [11]: 45 to 59%; pest or weed control at 70 g/ha [11]: 45 to 59%; pest or weed control at 140 g/ha [11]: 60 to 74%; melting point: 180 to 182 °C
COC(=O)c1nc(-c2ccc3nonc3c2OC)cc(N)c1Cl [Compound 9, Methyl 4-amino-3-chloro-6-(4-methoxybenzo[c][1,2,5]oxadiazol-5-yl)picolinate] | 0 to 29 | 0 to 29 | 0 to 29 | 0 to 29 | 0 to 29 | 0 to 29 | 0 to 29 | 0 to 29 | 0 to 29 | 0 to 29 | 0 to 29 | 0 to 29 | 0 to 29 | 0 to 29 | 0 to 29 | 0 to 29 | 0 to 29 | 45 to 59 | 60 to 74 | 60 to 74 | pest or weed control at 140 g/ha [3]: 0 to 29%; pest or weed control at 35 g/ha [12]: 0 to 29%; pest or weed control at 70 g/ha [12]: 0 to 29%; pest or weed control at 140 g/ha [12]: 0 to 29%; pest or weed control at 35 g/ha [9]: 0 to 29%; pest or weed control at 70 g/ha [9]: 0 to 29%; pest or weed control at 140 g/ha [9]: 0 to 29%; pest or weed control at 35 g/ha [10]: 60 to 74%; pest or weed control at 70 g/ha [10]: 60 to 74%; pest or weed control at 140 g/ha [10]: 75 to 84%; pest or weed control at 35 g/ha [11]: 0 to 29%; pest or weed control at 70 g/ha [11]: 0 to 29%; pest or weed control at 140 g/ha [11]: 0 to 29%; melting point: 142 to 144 °C
COC(=O)c1nc(-c2cccc3nonc23)cc(N)c1Cl [Compound 16] | 0 to 29 | 0 to 29 | 0 to 29 | 0 to 29 | 0 to 29 | 0 to 29 | 0 to 29 | 0 to 29 | 0 to 29 | 0 to 29 | 0 to 29 | 0 to 29 | 30 to 44 | 60 to 74 | 0 to 29 | 0 to 29 | 0 to 29 | 85 to 94 | 95 to 100 | 95 to 100 | pest or weed control at 140 g/ha [3]: 0 to 29%; pest or weed control at 35 g/ha [12]: 0 to 29%; pest or weed control at 70 g/ha [12]: 0 to 29%; pest or weed control at 140 g/ha [12]: 0 to 29%; pest or weed control at 35 g/ha [9]: 30 to 44%; pest or weed control at 70 g/ha [9]: 45 to 59%; pest or weed control at 140 g/ha [9]: 60 to 74%; pest or weed control at 35 g/ha [10]: 60 to 74%; pest or weed control at 70 g/ha [10]: 75 to 84%; pest or weed control at 140 g/ha [10]: 85 to 94%; pest or weed control at 35 g/ha [11]: 0 to 29%; pest or weed control at 70 g/ha [11]: 0 to 29%; pest or weed control at 140 g/ha [11]: 0 to 29%; melting point: 157 to 160 °C

— patent publication US9006250B2, “4-amino-6-(heterocyclic)picolinates and 6-amino-2-(heterocyclic)pyrimidine-4-carboxylates and their use as herbicides” (Dow AgroSciences, LLC, priority 2013, dated 2015)
